Test results: US20200147060A1, “COMPOSITIONS AND METHODS OF TREATING CANCER” (UNIVERSITY OF IOWA RESEARCH FOUNDATION, priority 2018, published 2020)
“Also recorded” adds a separate entry of the source. Like-named read-outs stand apart in the source and are kept apart here.

What was measured:
A375 melanoma cells = assay: Clonogenic survival assay; format: cell-based, human; conditions: for development / acquisition of resistance to MAPKi (clonogenic survival): secondary agent combined with MAPKih (Vem 5 μM; Cobi 0.1 μM), PBA 2 mM, HCQ 12 μM
Experimental: To determine if the observed MAPKi-induced GSH imbalance plays a causal role in development of resistance, clonogenic survival assays were conducted in which cells were treated with GSH-synthesis inhibitor buthionine sulfoximine (BSO) (0.5 mM) with and without Vem. BSO depletes cellular GSH by inhibiting GSH synthesis via competitive inhibition of gamma-glutamylcysteine synthetase.

A375 cells = assay: Expression of ER-stress/UPR markers (GRP78/BiP, eIF2α); format: cell-based, human
Experimental: The GSH/GSSG ratio is known to be a fundamental buffering parameter of the ER, and ER-stress responses have been implicated in the initiation of autophagy and acquisition of resistance to MAPKih. Thus, the impact of MAPKi-induced GSH imbalance on the expression of ER-stress response proteins was assessed. Changes in UPR markers GRP78 (BiP) and eI2Fa (phospho-eI2Fa to inactivated eI2Fa) were determined by western blot in A375 cells treated with Vem alone and in combination with Cobi (FIGS. 2A-C). […] To explore the role of MAPKi-induced GSH imbalance on activation of UPR, similar time-course experiments were performed to monitor the expression of UPR markers with continuous MAPKi with and without GSH depletion (using BSO). Depletion of the GSH pool using BSO in this way rendered the cells incapable of initiating the ER-stress response and no increase in the expression of GRP78 was seen when A375 cells were treated continuously with Vemurafenib in the presence of BSO (FIG. 2D).

[1] = cited from earlier work; for tolerability in patients: reported clinical trials
A375-CG-LC3B cells = assay: Autophagic flux (mCherry:EGFP ratio) by flow cytometry; format: cell-based, human
From the text: (§1) UPR responses signal the activation of cytoprotective pathways such as autophagy. The role of GSH in mediating the acquisition of resistance was further explored by examining autophagy and autophagic flux responses to MAPKi in A375 metastatic melanoma cells.
Briefly, A375-CG-LC3B cells were obtained using a retroviral vector containing a coding sequence for a mCherry-EGFP-LC3B tandem protein (pBABE-puro mCherry-EGFP-LC3B, #22418, Addgene). The retrovirus was packaged in GP2-293 cells by co-transfection of 1 μg of viral DNA constructs and 1 μg of envelope plasmid (pVSV-G) in 20 μL PolyFect transfection reagent (Qiagen) for 48 hours at 37° C., 5% CO2. Virus-rich media was collected, aliquoted, and stored at −80° C. Cells were infected using the virus-rich media in DMEM (high glucose) for 12 h followed by incubation in complete media (high-glucose DMEM with 10% FBS) for 24 h. […] Autophagy was quantified as autophagic flux (Af) using A375-CG-LC3B cells.
Where Fmcherry is mcherry fluorescence measured using the 532 nm laser and FGFP is GFP fluorescence measured using the 488 nm laser on LSR II. […] Samples were analyzed on an LSR II flow cytometer (BD). Af was calculated for live, non-apoptotic (Hoechst negative, Annexin V negative) population using the derived parameter function in Flow Jo software (V10.4). […]

[2] = tested on: MAPKi-resistant 451LuBR melanoma xenografts; assay: 451LuBR (BRAFi resistant melanoma) xenograft mouse model; format: in vivo, mice
Experimental: FIGS. 5A-5F. Pharmacologically Inhibiting Autophagy and ER-stress Simultaneously in Combination with MAPKih Improve Overall Survival in Vivo. Simultaneous inhibition of autophagy and ER-stress with MAPKih (Vem and Vem+Cobi) improves outcome in melanoma tumor bearing mice. (A-D) Simultaneous inhibition of ER-stress using PBA (250 mg kg^−1 twice a day) and autophagic flux using (HCQ 10 mg kg^−1 twice a day) with MAPKih (Vem 16 mg kg^−1 twice a day; Cobi 1 mg kg^−1 once a day) improves outcome in mice bearing MAPKi-sensitive A375 melanoma xenografts (N=13). (A) estimated tumor growth curves in response to PBA and HCQ with Vem; (B) estimated tumor growth curves in response to PBA and HCQ with Vem+Cobi; (C) overall survival in response to PBA and HCQ with Vem; (D) overall survival in response to PBA and HCQ with Vem+Cobi. (E, F) Simultaneous inhibition of ER-stress using PBA (250 mg kg^−1 twice a day) and autophagic flux using (HCQ 6.6 mg kg^−1 twice a day) with MAPKih (Vem 10 mg kg^−1 twice a day) improves outcome in mice bearing MAPKi-resistant 451LuBR melanoma xenografts (N=10); (E) estimated tumor growth curves in response to PBA and HCQ with Vem; and (F) overall survival in response to PBA and HCQ with Vem.
The potential for simultaneous inhibition of ER-stress and autophagy in overcoming resistance to MAPKih was further explored using a 451LuBR (BRAFi resistant melanoma) cell-line xenograft mouse model treated in the same way. Predictably, administering Vem alone had no effect of tumor growth and overall survival, establishing that these tumors are resistant to BRAFi.

451 Lu melanoma cells = assay: Clonogenic survival assay; format: cell-based; conditions: ME added to the combination of vem and BSO
Experimental: FIGS. 7A-7L. Reduced Thiols Play a Vital Role in Development of Resistance to MAPKi. (A-E) Reduced thiols play a vital role in development of resistance to MAPKi in vitro. Changes in (A) cellular concentration of reduced glutathione (GSH, nmoles/mg protein) (B) cellular concentration of oxidized glutathione (GSSG, nmoles/mg protein) of A375 melanoma cells when treated with buthionine sulfoximine (BSO, 0.5 mM) and 2-mercaptoethanol (ME, 150 μM) in presence of vemurafenib (Vem, 5 μM) (N=3). Difference in clonogenic survival of A375 (N=2, n=3) and 451 Lu (N=1, n=3) melanoma cells when treated with vem alone compared to (C) vem in combination with ME and (D) vem in combination with BSO. (E) Addition of ME to the combination of vem and BSO rescues clonogenic survival in A375 and 451 Lu melanoma cells. […] Spider plots show individual tumor growth rates in A375 tumor bearing mice (N=8) when (F) untreated; (G) treated with BSO (15 mM in drinking water); (H) treated with AIN-76A rodent diet mixed with vemurafenib (PLX4720); (I) combination of AIN-76A rodent diet mixed with vemurafenib (PLX4720) with BSO. (J) Levels of total cellular GSH in tumor tissue obtained from untreated mice and mice treated with BSO. (K) Progression Free Survival (PFS) and (L) Overall survival (OS). ±SEM; *p=0.01 to 0.05, **p=0.001 to 0.01 ****P<0.0001.

[3] = tested on: A375 BRAFV600E mutant melanoma cells; assay: Glutathione (GSH, GSSG) levels in cells under prolonged MAPKi; format: cell-based, human
From the text: (§2) Initial response rates to MAPKih (BRAFih and BRAFih+MEKih) are often significant (and sometimes remarkable), but melanoma almost invariably (within months) develops resistance to these treatments. It has been further documented that continuous MAPKi brings about changes in cellular metabolism accompanied with a shift in metabolism from glycolysis to oxidative phosphorylation in vitro. Changes were examined in metabolism and oxidative state of A375 BRAFV600E mutant melanoma cells from initiation of BRAFih (Vem, 5 μM) through the acquisition of resistance (approximately 30 days). […] Changes in cellular metabolism coincided with a nearly identical pattern in the cellular redox state of the cell when quantified by the method of DHE oxidation by fluorescence intensity. […] Considering the critical relationship between cellular responses to oxidative stress and the glutathione cellular redox buffer, the changes in glutathione (GSH) levels and the ratio of GSH to the oxidized form (GSH:GSSG) with prolonged MAPKi in the A375 cells treated with Vem (5 μM) were evaluated over the same time period (FIG. 1D).

[4] = tested on: A375 BRAFV600E mutant melanoma cells; assay: Oxygen consumption / extracellular acidification (Seahorse metabolic profiling); format: cell-based, human; conditions: Vem 5 μM continuous; plateaued within approximately 2 weeks
Experimental: (A) The ratio of basal metabolic oxygen consumption (BMOC)/extracellular acidification rate (ECAR) in response to continuous exposure to 5 μM Vem (N=6) as determined by Seahorse metabolic profiling; (B) Measurement of cellular pro-oxidant levels as determined by dyhdroethidium (DHE) oxidation in response to 5 μM Vem (N=3); (C) GSSG:GSH in response to Vem (N=2); (D) total cellular GSH in response to Vem (N=2).

[5] = tested on: A375 BRAFV600E mutant melanoma cells; assay: DHE oxidation (cellular redox state) by fluorescence intensity; format: cell-based, human; conditions: Vem 5 μM; subsided with acquisition of resistance
From the text: as §2

[6] = tested on: A375 metastatic melanoma cells; assay: Autophagosome area fraction (TEM) and LC3B-II expression; format: cell-based, human
From the text: as §1

[7] = tested on: MAPKi-sensitive A375 melanoma xenografts; assay: A375 xenograft bearing mice treated with MAPKih with or without PBA and HCQ; format: in vivo; conditions: Vem 16 mg/kg twice a day, Cobi 1 mg/kg once a day, PBA 250 mg/kg twice a day i.p., HCQ 10 mg/kg twice a day
Experimental: To further explore the potential of simultaneous pharmacological inhibition of ER-stress and autophagy in preventing resistance to MAPKih, A375 xenograft bearing mice (FIGS. 5A-D) were treated with MAPKih or MAPKih in combination with PBA (250 mg kg-1 per dose, twice a day, i.p.) and HCQ (10 mg kg-1 per dose, twice per day, oral gavage). […] The experimental groups included MAPKi by Vem (BRAFih) (16 mg kg-1 per dose, twice a day, oral gavage) alone and in combination with Cobi (MAPKih) (1 mg kg-1 per dose, once a day, oral gavage).

metastatic melanoma = conditions: cited from earlier work; for progression-free survival (time tumor progression is slowed): melanoma patients, average
[8] = Vem 10 mg/kg, PBA 250 mg/kg, HCQ 6.6 mg/kg, each twice a day, compared to control
[9] = A375 cells, prolonged MAPKi (Vem 5 μM)

CCCCS(=N)(=O)CCC(N)C(=O)O [BSO, L-buthionine-[S,R]-sulfoximine]
clonogenic survival (A375 melanoma cells; BSO 0.5 mM alone, without MAPKih): did not affect | development / acquisition of resistance to MAPKi (clonogenic survival) (A375 melanoma cells; BSO 0.5 mM): completely inhibits acquisition of resistance; also recorded: prevents acquisition of resistance | expression of GRP78 (BiP) (A375 cells; continuous Vem in the presence of BSO 0.5 mM): diminished | tolerability in patients [1]: well-tolerated

CCN(CCO)CCCC(C)Nc1ccnc2cc(Cl)ccc12 (stereo not shown) [HCQ, Hydroxychloroquine]
development / acquisition of resistance to MAPKi (clonogenic survival) (A375 melanoma cells; BSO 0.5 mM): prevented resistance | autophagic flux induced by MAPKi (A375-CG-LC3B cells; secondary agent (BSO 0.5 mM, PBA 2 mM, HCQ 12 μM) added to MAPKih, versus MAPKih alone): decreased | median / overall survival [2, 8]: significantly enhanced | complete response (complete remissions) ([2]; share of mice): 20% | tolerability in patients [1]: well tolerated

OCCS [ME, 2-mercaptoethanol]
clonogenic survival on addition of ME to vem and BSO (A375 melanoma cells; ME 150 μM, BSO 0.5 mM, Vem 5 μM): reversed; also recorded: rescues | clonogenic survival on addition of ME to vem and BSO (451 Lu melanoma cells): rescues

O=C(O)CCCc1ccccc1 [PBA, phenylbutyric acid]
tolerated dose ([1]; patients suffering from urea cycle disorders): up to 27 g per day | tolerability in patients [1]: safely administered

CCCS(=O)(=O)Nc1ccc(F)c(C(=O)c2c[nH]c3ncc(-c4ccc(Cl)cc4)cc23)c1F [Vem, Vemurafenib]
total GSH concentration after adaptation ([3]; >170 d Vem treatment, versus untreated control cells): re-equilibrated to levels comparable to untreated control cells | depletion of glutathione (GSH) [3, 9]: 68% | increase in oxidized glutathione (GSSG) [3, 9]: 30 fold | ratio of oxygen consumption linked to basal mitochondrial respiration (OCR) and extracellular acidification rate (ECAR) [4]: initial increase | oxidation of DHE [5]: initial increase | expression of ER-stress markers (A375 cells; continuous MAPKi, later decrease to pre-treatment levels): gradual increase | area fraction of cells covered by autophagosomes (TEM) ([6]; Vem 5 μM): significant increase | expression of autophagic flux marker LC3B-II ([6]; continuous MAPKi by Vem): significant increases | autophagic flux (A375-CG-LC3B cells; continuous MAPKi (Vem 5 μM; Cobi 0.1 μM) versus untreated cells): increased | rate of tumor growth [7]: similar | median / overall survival [2, 8]: no effect | tumor growth rate [2, 8]: no effect | progression-free survival (time tumor progression is slowed) (metastatic melanoma; listed as Vemurafenib): about 7.2 months | progression-free survival (time tumor progression is slowed) (metastatic melanoma; listed as vemurafenib): 7.2 months

CC(C)(C)c1nc(-c2cccc(NS(=O)(=O)c3c(F)cccc3F)c2F)c(-c2ccnc(N)n2)s1 [dabrafenib, Dabrafenib]
time until resistance occurs (metastatic melanoma; clinical trial data): 6 to 7 months
